Measurements as given in article PMC9763333, “In vitro characterization of immune modulating drug-eluting immunobeads towards transarterial embolization in cancer” (Scientific Reports, 2022).
Where “and” joins values, the source holds several entries; their conditions need not be identical. Equal values may be shown once. Entries after “also recorded” stand apart in the source; their conditions may differ.

Columns and labels:
[1] = Drug loading into DC Bead LUMI; type: physicochemical
How it was run: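 Loading done in triplicate; amount loaded = initial drug in loading solution minus drug remaining and cumulative drug withdrawn for sampling. Maximum loading taken when loading-solution concentration stopped changing, before washing; relative % loading expressed on a molar basis against available SO3^- ions, mean ± SD.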

[2] = cited from earlier work
[3] = Drug release from DC Bead LUMI in saline; type: physicochemical; conditions: for percent drug eluted from DC Bead LUMI / drug eluted from DC Bead LUMI: saline, single replicates; for percent drug eluted from DC Bead LUMI: percent of drug loaded
How it was run: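 Beads loaded with drug (62.5 µL of DC Bead LUMI) were placed in 50 mL of saline (0.9 mg/mL, pH 7.4) and rocked upright at 37 °C at speed setting 10 (70 rpm). At each sampling time, 1 mL of medium was taken for drug quantification and replaced with 1 mL of fresh saline pre-warmed to 37 °C. Cumulative release accounted for drug removed in earlier samples, and the 50 mL volume kept sink conditions.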

[4] = Drug solubilization by salt formation in acid; type: physicochemical
How it was run: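 Drug base suspended in water and titrated with 0.1 N HCl until dissolved, at a final 2.5 mg/mL; solution lyophilized to the hydrochloride salt or used directly for DC Bead LUMI loading. GS-9620 and its decomposition product analyzed by C8 reversed-phase HPLC (UV 230 nm) and LC/MS.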

SMILES: COc1nc(OCc2cccc(-c3ccccc3)c2C)ccc1CNCCNC(C)=O [BMS-202]
- Relative percent drug loaded in DC Bead LUMI over time ([1]; 5 min, single replicates): 36.8467% and 31.5632% and 21.322%
- Relative percent drug loaded in DC Bead LUMI over time ([1]; 15 min, single replicates): 30.3231% and 39.2476% and 47.138%
- Relative percent drug loaded in DC Bead LUMI over time ([1]; 30 min, single replicates): 47.9681% and 46.426% and 44.5676%
- Relative percent drug loaded in DC Bead LUMI over time ([1]; 45 min, single replicates): 56.9526% and 51.0915% and 54.8687%
- Relative percent drug loaded in DC Bead LUMI over time ([1]; 60 min, single replicates): 63.8406% and 58.0947% and 63.6687%
- Relative percent drug loaded in DC Bead LUMI over time ([1]; 120 min, single replicates): 85.531% and 84.4265% and 85.0145%
- Relative percent drug loaded in DC Bead LUMI over time ([1]; 180 min, single replicates): 98.296% and 98.7957% and 94.8002%
- Relative percent drug loaded in DC Bead LUMI over time ([1]; 240 min, single replicates): 106.342% and 112.145% and 106.321%
- Relative percent drug loaded in DC Bead LUMI over time ([1]; 300 min, single replicates): 111.107% and 116.727% and 112.613%
- Relative percent drug loaded in DC Bead LUMI over time ([1]; 360 min, single replicates): 115.109% and 120.479% and 108.292%
- Relative percent drug loaded in DC Bead LUMI over time ([1]; 420 min, single replicates): 117.263% and 122.293% and 119.836%
- Relative percent drug loaded in DC Bead LUMI over time ([1]; 480 min, single replicates): 118.462% and 124.442% and 121.713%
- Relative percent drug loaded in DC Bead LUMI over time ([1]; 1440 min, single replicates): 121.282% and 124.78% and 117.021%
- Relative percent drug loaded in DC Bead LUMI over time ([1]; 2880 min, single replicates): 119.234% and 124.78% and 122.668%
- Relative percent drug loaded in DC Bead LUMI over time ([1]; 4320 min, single replicates): 118.18% and 124.96% and 121.21%
- Relative percent drug loaded in DC Bead LUMI over time ([1]; 8640 min, single replicates): 119.5% and 124.96% and 122.329%
- drug loaded above the predicted capacity of the bead ([1]; DC Bead LUMI): approximately 23%
- loading behaviour ([1]; DC Bead LUMI): slower loading
- Relative percent drug loaded (maximum, percent of SO3− available on a molar basis) ([1]; DC Bead LUMI, mean (n = 3), listed as BMS-200): 122.93%
- equivalent of drug loaded to sulfonated bead ([1]; DC Bead LUMI, mean ± SD): 0.35 ± 0.01 mM drug/ml beads
- Maximum drug loaded ([1]; DC Bead LUMI, mean ± SD, n = 3, base form except Dox (salt form)): 148.05 ± 2.24 mg drug/ml beads
- Maximum drug loaded (Triplicate), % ([1]; DC Bead LUMI, single replicates, listed as BMS-200): 121.282% and 124.83% and 122.668%
- Drug: sulfonate ([1]; molar ratio at maximum loading, DC Bead LUMI): 1.223
- Theoretical maximum loading level based on SO3− contents ([1]; per mL DC Bead LUMI, assuming 1:1 drug to sulfonate): 120.40 mg and 120.4 mg
- pKa (literature) [2]: 7.74 (literature) [54]
- percent drug eluted from DC Bead LUMI ([3]; 5 min): 2.472% and 2.4176% and 2.385%
- drug eluted from DC Bead LUMI ([3]; 5 min): 8.513 µmol and 8.629 µmol and 8.378 µmol
- percent drug eluted from DC Bead LUMI ([3]; 15 min): 2.589% and 2.639% and 2.416%
- drug eluted from DC Bead LUMI ([3]; 15 min): 8.915 µmol and 9.4174 µmol and 8.488 µmol
- percent drug eluted from DC Bead LUMI ([3]; 30 min): 2.762% and 2.728% and 2.934%
- drug eluted from DC Bead LUMI ([3]; 30 min): 9.513 µmol and 9.737 µmol and 10.3104 µmol
- percent drug eluted from DC Bead LUMI ([3]; 45 min): 3.33% and 2.98% and 3.1337%
- drug eluted from DC Bead LUMI ([3]; 45 min): 11.4676 µmol and 10.637 µmol and 11.0105 µmol
- percent drug eluted from DC Bead LUMI ([3]; 60 min): 3.248% and 3.3497% and 3.385%
- drug eluted from DC Bead LUMI ([3]; 60 min): 11.1858 µmol and 11.9555 µmol and 11.8939 µmol
- percent drug eluted from DC Bead LUMI ([3]; 120 min): 4.556% and 3.526% and 4.046%
- drug eluted from DC Bead LUMI ([3]; 120 min): 15.688 µmol and 12.584 µmol and 14.2155 µmol
- percent drug eluted from DC Bead LUMI ([3]; 180 min): 5.055% and 4.61% and 4.461%
- drug eluted from DC Bead LUMI ([3]; 180 min): 17.4074 µmol and 16.4551 µmol and 15.6742 µmol
- percent drug eluted from DC Bead LUMI ([3]; 240 min): 5.272% and 4.993% and 5.201%
- drug eluted from DC Bead LUMI ([3]; 240 min): 18.1541 µmol and 17.8191 µmol and 18.2734 µmol
- percent drug eluted from DC Bead LUMI ([3]; 300 min): 5.575% and 5.37% and 5.345%
- drug eluted from DC Bead LUMI ([3]; 300 min): 19.198 µmol and 19.1657 µmol and 18.7818 µmol
- percent drug eluted from DC Bead LUMI ([3]; 360 min): 6.559% and 5.753% and 6.275%
- drug eluted from DC Bead LUMI ([3]; 360 min): 22.5859 µmol and 20.5327 µmol and 22.0468 µmol
- percent drug eluted from DC Bead LUMI ([3]; 420 min): 6.666% and 5.904% and 7.0124%
- drug eluted from DC Bead LUMI ([3]; 420 min): 22.954 µmol and 21.073 µmol and 24.6387 µmol
- percent drug eluted from DC Bead LUMI ([3]; 480 min): 7.32% and 7.2% and 7.286%
- drug eluted from DC Bead LUMI ([3]; 480 min): 25.2083 µmol and 25.6984 µmol and 25.5995 µmol
- percent drug eluted from DC Bead LUMI ([3]; 1440 min): 11.7204% and 10.5374% and 10.9377%
- drug eluted from DC Bead LUMI ([3]; 1440 min): 40.3605 µmol and 37.6096 µmol and 38.4305 µmol
- percent drug eluted from DC Bead LUMI ([3]; 2880 min): 14.9312% and 14.241% and 13.8435%
- drug eluted from DC Bead LUMI ([3]; 2880 min): 51.4172 µmol and 50.828 µmol and 48.6405 µmol
- percent drug eluted from DC Bead LUMI ([3]; 4320 min): 16.6252% and 15.679% and 15.9706%
- drug eluted from DC Bead LUMI ([3]; 4320 min): 57.2509 µmol and 55.9606 µmol and 56.1142 µmol
- percent drug eluted from DC Bead LUMI ([3]; 8640 min): 17.1401% and 16.2829% and 16.6995%
- drug eluted from DC Bead LUMI ([3]; 8640 min): 59.0238 µmol and 58.1158 µmol and 58.6753 µmol
- release behaviour in saline ([3]; DC Bead LUMI): slow release; also recorded: prolonged release profile
- solubilization upon addition of 0.1 N HCl ([4]; 0.1 N HCl, deionized water): did not solubilize
- pH at which each drug dissolved for loading ([4]; T in °C in parentheses in the cell (20.1 or 21.1)): 2.11 (20.1)
